Data reported in patent US9546195B2, “Hydrophobic ceragenin compounds and devices incorporating same” (BRIGHAM YOUNG UNIVERSITY, priority 2011, dated 2017).

How the values were obtained:
[1] = tested on: microbes; test: Ability to elute from polymer and kill microbes; conditions: compared with other ceragenins
[2] = tested on: S. aureus; test: MIC of CSA-138 for S. aureus; type: cell-based; conditions: Staphylococcus aureus
[3] = tested on: P. aeruginosa; test: MIC of CSA-138 for P. aeruginosa; type: cell-based; conditions: Pseudomonas aeruginosa
[4] = Elution of radiolabeled CSA-138 from hydrogel contact lenses, scintillation counting; type: physicochemical
Procedure: To decrease the detection limit for CSA-138, we prepared a radiolabeled version of CSA-138 (CSA-138T2), incorporated it into contact lenses, and quantified its elution from lenses using scintillation counting.
Lenses containing 1% CSA-138 were stored in 0.5 mL phosphate buffered saline (PBS) prior to testing. One set of lenses was autoclaved for 45 min before elution studies were performed. For elution studies, lenses were suspended in 2 ml aliquots of PBS, 10% TSB growth medium, 10% TSB growth medium containing 10^6 CFU of Staphylococcus aureus, or 10% TSB growth medium containing 10^6 CFU of Pseudomonas aeruginosa. Corresponding aliquots were exchanged every 24 h, including bacterial inocula. Samples were removed every 24 h and analyzed for the presence of CSA-138 using scintillation counting. A standard curve was generated to correlate counts per minute to concentration of CSA-138. All experiments were performed in triplicate.

[5] = Elution of CSA-138 from hydrogel contact lenses, LC/MS with mass-labeled internal standard; type: physicochemical; conditions: lenses with CSA-138 incorporated at 1%; LC/MS detection limit about 2 μg/ml
Procedure: To better understand the mechanism by which hydrophobic ceragenin compounds can prevent bacterial colonization, the bonding between CSA-138 and a hydrogel used in contact lenses was evaluated. In a first example, we determined the rate at which CSA-138 elutes from a hydrogel suitable for use in contact lenses. To quantify the amount of ceragenin eluting from the hydrogel, we used LC/MS using a mass-labeled internal standard. However, this method only gave detection limits of about 2 μg/ml, and we were able to effectively kill bacteria at constant elution rates below the detection limit.

[6] = tested on: S. aureus; conditions: elution from lenses, inocula 10^6 CFU S. aureus; cited from earlier work
[7] = tested on: P. aeruginosa; conditions: elution from lenses, inocula 10^6 CFU P. aeruginosa; cited from earlier work

Row | SMILES | ability to elute and kill microbes [1] | MIC [2] | MIC [3] | elution in the presence of bacteria ([4]; 10% TSB with 10^6 CFU S. aureus (nine days) or P. aeruginosa (eight days), FIGS. 6 and 7) | elution on the first day ([4]; lenses containing 1% CSA-138, suspended in 2 ml PBS, first day (FIG. 3)) | time until elution of CSA-138 drops below 1 μg/ml ([4]; trend of FIG. 5 extended) | time until elution fell below detection limits [5] | prevents colonization, consecutive days [6] | prevents colonization [7]
1 | CCCCCCCCCCNCCC[C@@H](C)[C@H]1CC[C@H]2[C@@H]3[C@H](OCCCN)C[C@@H]4C[C@H](OCCCN)CC[C@]4(C)[C@H]3C[C@H](OCCCN)[C@]12C [CSA-136] | advantageous over CSA-135 |  |  |  |  |  |  |  | 
2 | CCCCCCCCCCCCCNCCC[C@@H](C)[C@H]1CC[C@H]2[C@@H]3[C@H](OCCCN)C[C@@H]4C[C@H](OCCCN)CC[C@]4(C)[C@H]3C[C@H](OCCCN)[C@]12C [CSA-138] |  | 0.5 µg/mL | 1 µg/mL | fluctuated substantially | about 2.2 μg/ml | about 40 days | within five days | 30 days | 19 days
